Test results: EP1382597A2, “Steroid receptor modulator compounds and methods” (LIGAND PHARMACEUTICALS, INC., priority 1994, dated 1996)

What was measured:
human PR-B [1] = target: T1, human PR-B (Homo sapiens, UniProt P06401); assay: Co-transfection assay, PR agonist activity; type: cell-based; settings: for Emax: CV-1, read-out: PR Agonist CV-1 Cells Efficacy (%);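 on all read-outs here: CV-1 cells (African green monkey kidney) co-transfected with receptor plasmid and hormone-responsive firefly luciferase reporter, agonism read as compound-dependent rise in luciferase signal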
T1 construct: expressed in transfected cells; host or cells: CV-1 cells (African green monkey kidney fibroblasts), transient transfection
T1 sequence (P06401 1-933): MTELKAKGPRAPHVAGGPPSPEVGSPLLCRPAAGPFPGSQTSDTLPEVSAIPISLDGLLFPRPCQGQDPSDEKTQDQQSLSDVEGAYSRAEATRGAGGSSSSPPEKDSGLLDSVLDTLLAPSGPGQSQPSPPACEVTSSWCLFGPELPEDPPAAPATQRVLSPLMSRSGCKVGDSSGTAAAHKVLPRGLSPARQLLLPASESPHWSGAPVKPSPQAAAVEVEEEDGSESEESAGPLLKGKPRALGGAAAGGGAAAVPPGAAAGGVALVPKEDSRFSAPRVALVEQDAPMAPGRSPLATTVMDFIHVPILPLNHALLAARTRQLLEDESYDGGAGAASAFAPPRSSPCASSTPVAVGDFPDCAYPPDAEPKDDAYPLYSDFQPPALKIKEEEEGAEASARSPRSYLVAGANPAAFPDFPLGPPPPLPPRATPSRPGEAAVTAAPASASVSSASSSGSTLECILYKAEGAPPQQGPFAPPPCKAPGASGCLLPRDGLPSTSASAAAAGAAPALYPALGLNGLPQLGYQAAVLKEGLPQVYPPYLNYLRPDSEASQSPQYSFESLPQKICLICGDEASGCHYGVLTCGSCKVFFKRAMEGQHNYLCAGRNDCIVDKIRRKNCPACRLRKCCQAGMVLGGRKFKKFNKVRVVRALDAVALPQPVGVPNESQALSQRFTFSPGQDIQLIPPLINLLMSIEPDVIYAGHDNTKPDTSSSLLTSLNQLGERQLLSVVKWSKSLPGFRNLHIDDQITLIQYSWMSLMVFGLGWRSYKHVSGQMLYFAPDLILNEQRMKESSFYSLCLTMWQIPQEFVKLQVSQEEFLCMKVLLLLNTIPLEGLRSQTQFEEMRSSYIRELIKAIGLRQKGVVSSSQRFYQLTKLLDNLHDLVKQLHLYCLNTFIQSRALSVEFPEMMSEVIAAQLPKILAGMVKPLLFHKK

human PR-B [2] = target: T1, human PR-B; assay: Co-transfection assay, PR antagonist activity; type: cell-based; settings: for Emax: CV-1, read-out: PR Antagonist CV-1 Cells Efficacy (%);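 on all read-outs here: monkey kidney fibroblasts co-transfected with receptor expression plasmid and hormone-responsive luciferase reporter, antagonism read as reduced luciferase signal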

| SMILES | PR Agonist CV-1 Cells Efficacy (%) (human PR-B [1]; CV-1 cells, percent maximal response relative to reference agonist progesterone) | PR Antagonist CV-1 Cells Efficacy (%) (human PR-B [2]; CV-1 cells, percent maximal inhibition, progesterone at its EC50) | Emax (human PR-B [1]) [%] | Emax (human PR-B [2]) [%] | PR Agonist CV-1 Cells Efficacy (%) (human PR-B [1]; cv-1 cells) |
| --- | --- | --- | --- | --- | --- |
| CC1(C)C=Cc2c(ccc3c2c(=O)oc2ccc(Cl)cc23)N1 [Compound 313, 9-Chloro-1,2-dihydro-2,2-dimethyl-5-coumarino[3,4-f]quinoline] | 26 | 94 |  |  |  |
| CC1=CC(C)(C)Nc2ccc(-n3cnc(Cl)c3Cl)cc21 [Compound 103, 6-(4,5-Dichloroimidazol-1-yl)-1,2-dihydro-2,2,4-trimethylquinoline] |  |  | < 20 | 91 |  |
| CCCO[C@@H]1[C@@H](C)c2c(ccc3c2[C@H](c2ccc(Cl)cc2)Oc2ccccc2-3)NC1(C)C (relative stereo) [Compound 400, (R/S-3l,4u,5u)-5-(4-Chlorophenyl)-1,2,3,4-tetrahydro-3-propyloxy-2,2,4-trimethyl-5H-chromeno[3,4-f]quinoline] |  |  | < 20 | 68 |  |
| CC1=CC(C)(C)Nc2ccc3c(c21)/C(=C/c1ccccc1F)Oc1ccccc1-3 [Compound 228, (Z)-5-(2-Fluorobenzylidene)-1,2-dihydro-2,2,4-trimethyl-5H-chromeno[3,4-f]quinoline] |  |  | 114 | < 20 |  |
| CC1C(=O)C(C)(C)Nc2ccc3c(c21)/C(=C/c1cccc(F)c1)Oc1ccccc1-3 (racemic) [Compound 389, (Z)-(R/S)-5-(3-Fluorobenzylidene)-1,2,3,4-tetrahydro-2,2,4-trimethyl-5H-chromeno[3,4-f]-3-quinolinone] |  |  | 133 | < 20 |  |
| CC1=CC(C)(C)Nc2ccc(-c3cc(F)cc(C#N)c3)cc21 [Compound 271, 6-(3-Cyano-5-fluorophenyl)-1,2-dihydro-2,2,4-trimethylquinoline] |  |  |  |  | na (key: na = not active (i.e. efficacy of <20 and potency of >10,000)) |
| CC1=CC(C)(C)Nc2ccc(-c3cccc([N+](=O)[O-])c3)c(Cl)c21 [Compound 310, 5-Chloro-1,2-dihydro-2,2,4-trimethyl-6-(3-nitrophenyl)quinoline] |  |  | < 20 | 70 |  |
| CC1=CC(C)(C)Nc2ccc3c(c21)/C(=C/c1ccc(F)cc1)Oc1ccccc1-3 [Compound 221, (Z)-5-(4-Fluorobenzylidene)-1,2-dihydro-2,2,4-trimethyl-5H-chromeno[3,4-f]quinoline] |  |  | 105 | < 20 |  |
| CC1=CC(C)(C)Nc2ccc3c(c21)C(C)Oc1ccc(Cl)cc1-3 (racemic) [Compound 332, (R/S)-9-Chloro-1,2-dihydro-2,2,4,5-tetramethyl-5H-chromeno[3,4-f]quinoline] |  |  | 138 | < 20 |  |
| CC1CC(C)(C)Nc2ccc(-c3cc(F)cc(C#N)c3)cc21 (racemic) [Compound 455, (R/S)-6-(3-Cyano-5-fluorophenyl)-1,2,3,4-Tetrahydro-2,2,4-trimethylquinoline] |  |  | < 20 | 76 |  |
| CC1=CC(C)(C)Nc2ccc3c(c21)COc1c(Cl)cccc1-3 [Compound 331, (R/S)-7-Chloro-1,2-dihydro-2,2,4-trimethyl-5H-chromeno[3,4-f]quinoline] |  |  | < 20 | 88 |  |
| CC1=CC(C)(C)Nc2cc(C)c3c(c21)/C(=C/c1ccccc1)Oc1ccc(F)cc1-3 [Compound 377, (Z)-5-Benzylidene-9-fluoro-1,2-dihydro-2,2,4,11-tetramethyl-5H-chromeno[3,4-f]quinoline] |  |  | 101 | < 20 |  |
| CC1(C)Nc2ccc3c(c2C(=O)C1(C)C)C(c1ccc(Cl)cc1)Oc1ccccc1-3 (racemic) [Compound 379, (R/S)-5-(4-Chlorophenyl)-1,2,3,4-tetrahydro-2,2,3,3-tetramethyl-5H-chromeno[3,4-f]-4-quinolinone] |  |  | < 20 | 87 |  |
| CC1(C)C=Cc2c(ccc3c2/C(=C/c2ccccc2)Oc2ccc(Cl)cc2-3)N1 [Compound 368, (Z)-5-Benzylidene-9-chloro-1,2-dihydro-2,2-dimethyl-5H-chromeno[3,4-f]quinoline] |  |  | 183 | < 20 |  |
| CC1=CC(C)(C)Nc2c(F)cc(-c3cccc([N+](=O)[O-])c3)cc21 [Compound 291, 8-Fluoro-1,2-dihydro-2,2,4-trimethyl-6-(3-nitrophenyl)quinoline] |  |  | < 20 | 79 |  |
| CC1=CC(C)(C)Nc2ccc(-c3csc(C#N)c3)cc21 [Compound 452, 6-(5-Cyano-3-thienyl)-1,2-dihydro-2,2,4-trimethylquinoline] |  |  | 119 | 70 |  |
| CC1=CC(C)(C)Nc2ccc3c(c21)/C(=C/c1ccccc1C)Oc1ccc(F)cc1-3 [Compound 374, (Z)-9-Fluoro-1,2-dihydro-2,2,4-trimethyl-5-(2-methylbenzylidene)-5H-chromeno[3,4-f]quinoline] |  |  | 231 | < 20 |  |
| CC1=CC(C)(C)Nc2ccc3c(c21)/C(=C/c1ccccc1)Oc1ccccc1-3 [Compound 220, (Z)-5-Benzylidene-1,2-dihydro-2,2,4-trimethyl-5H-chromeno[3,4-f]quinoline] |  |  | 147 | < 20 |  |
| CC1C(=O)C(C)(C)Nc2ccc(-c3cc(F)cc(C#N)c3)cc21 (stereo not drawn) [Compound 286, 6-(3-Cyano-5-fluorophenyl)-1,2-dihydro-2,2,4-trimethyl-3-quinolone] |  |  | < 20 | 84 |  |
| CC1=CC(C)(C)Nc2ccc(-c3cccc(Cl)c3Cl)cc21 [Compound 109, 6-(2,3-Dichlorophenyl)-1,2-dihydro-2,2,4-trimethylquinoline] |  |  | < 20 | 87 |  |
| CC1=CC(C)(C)Nc2ccc(-c3nn(C)cc3Br)cc21 [Compound 104, 6-(4-Bromo-1-methylpyrazol-3-yl)-1,2-dihydro-2,2,4-trimethylquinoline] |  |  | 39 | 71 |  |
| CCCCC1Oc2ccccc2-c2ccc3c(c21)C(C)C(O)(CCCC)C(C)(C)N3 (racemic) [Compound 385, (R/S)-3,5-Dibutyl-1,2,3,4-tetrahydro-3-hydroxy-2,2,4-trimethyl-5H-chromeno[3,4-f]quinoline] |  |  | 27 | 45 |  |
| CC(=O)[C@H]1CC[C@H]2[C@@H]3CCC4=CC(=O)CC[C@]4(C)[C@H]3CC[C@]12C [Prog, progesterone, reference compound] |  |  | 100 | < 20 |  |
